Structures are written as SMILES. Read-outs that look alike come from different tables or passages of the source. Marks after values point to notes of the source that are not given here. Where a SMILES comes first, the peptide text is derived from it.

Consider three molecules from patent EP2818477B1, “L-LYSYL-L-GLUTAMYL-L-TRYPTOPHAN FOR CORRECTING METABOLIC SYNDROME” (Obshestvo S Organichennoj Otvetstvennostju "CytoNIR", priority 2012, dated 2016).

A short description of data set [1]: Hyperlipidaemia induced by polyoxyethylene sorbitan monooleate (polysorbate-80) in rats, serum lipids. The format is in vivo, Ratten. The settings on record: blood serum 24 h after polysorbate-80 300 mg/kg i.p. The procedure: Die Versuche wurden an 51 Outbred-Ratten-Männchen der Linie Sprague-Dawley mit Körpergewicht von 220 - 240 g durchgeführt.
Die untersuchten Peptide wurden täglich in einer Tagesdosis von 20 und 200 µg/kg in den Magen im Laufe von 5 Tagen bis Hyperlipidämie-Ansatz verabreicht. Als Vergleichspräparat wurde ein Präparat gegen Hyperlipidämie aus der Gruppe von Fibric-Säure-Derivaten oder Fibraten - Bezafibrat (2-(b-parachlorobenzoyl-aminoethyl)phenoxy-2-methylpropinsäure) in der Dosis 50,0 mg/kg verwendet.
Die Hyperlipidämie wurde bei Ratten mittels intraperitonealer Einführung von Polyoxyethylen-sorbitan-monooleat (Polysorbat-80, Mischung von Polyäthylen-glykol-Esteren von Anhydrosorbit Monooleat) in einer Dosis von 300 mg/kg verabreicht. 24 Stunden später wurden die Ratten eingeschläfert. Danach wurden Triglyzeridspiegel, Gesamtcholesterin und Lipoproteid-Cholesterin mit hoher Dichte (HDL) im Blutserum der Tiere gemessen.
Infolge der Untersuchung der spezifischen pharmakologischen Aktivität wurde Folgendes festgestellt. Im Hintergrund der durch Polyoxyethylen-sorbitan-monooleat verursachten Hyperlipidämie üben Peptide eine hypolipidämische Wirkung aus. Das zeigt sich durch Senkung des Triglyzeridspiegels, des Gesamtcholesterinspiegels sowie durch Steigerung des HDL-Cholesterins im Blut (Tabelle 1) an. Tabelle 1

A short description of data set [2]: Alimentary atherogenic dyslipoproteinaemia (hypercholesterolaemic diet, 24 days) in rats, serum lipids. Format: in vivo, Ratten. Conditions: 100 µg/kg i.p. daily. The source says:
Der Versuch wurde an 40 weißen Ratten-Männchen der Wistar-Linie mit einem Körpergewicht von 230 - 250 g durchgeführt. Die Tiere wurden in 4 Gruppen aufgeteilt. Gruppe 1: Referenzgruppe (Intakt), Gruppen 2 bis 4: Versuchsgruppen.
Die Versuchstiere wurden auf hypercholesterinämische (HCÄ) Diät gesetzt, um eine alimentäre atherogene Dyslipoproteinämie (DLP) zu modellieren. Die HCÄ- Diät umfasste mind. 7,5 % Cholesterin (CS), 45 % Fette und einen Überschuss an Vitamin D2 (500 000 IE). Gleichzeitig mit der Entwicklung von DLP erhielt die 3. Gruppe von Tieren Lys-Glu-Trp in einer Dosis von 100 µg/kg intraperitoneal täglich. Die 4. Gruppe von Tieren erhielt Lipanthyl 25 mg/kg intraperitoneal Lipanthyl 200M der Fa. Lab.Fournier S.A. (Frankreich) oder Fenofibrate, die zur Behandlung von Hyperlipoproteinämie verwendet werden, die sich mit keiner Diät mehr behandeln lässt. Der Versuch dauerte 24 Tage. […] Sie waren wohlgenährt und hatten glattes glänzendes Fell. Die Tiere aus der 2. Gruppe hatten zerzaustes Fell und zeigten Übererregbarkeit, was durch einen Überschuss an Vitamin D2 erklärt werden kann.
Nach dem Versuchsende wurde eine Dekapitation der Tiere vorgenommen. Danach wurden der Gesamt-Cholesterinspiegel (CS), Triglyzeridspiegel (TG), Cholesteringehalt der Lipoproteine hoher Dichte (CS HDL) im Blutserum der Tiere beurteilt und die Cholesterin-Konzentration der Lipoproteine niedriger Dichte (CS LDL) sowie der Cholesterin-HDL Quotient (LDL/HDL-Verhältnis) berechnet. Die genannten Kennziffern sind der Tabelle 2 zu entnehmen. Tabelle 2
Bei der Beurteilung wurden der Zustand und das Gewicht von Leber, Milz und Nebennieren berücksichtigt.

The format of data set [3] is in vivo. The settings on record: 500 µg oral twice daily for 30 days. The source says: Die Untersuchung bezog sich auf Patienten mit einer verifizierten Diagnose eines metabolischen Syndroms. Die Diagnose wurde bei Erfüllung folgender Kriterien gestellt: arterielle Hypertension, gestörte Glukosetoleranz, Fettsucht, Dyslipidämie. Es wurden insgesamt 85 Patienten mit metabolischem Syndrom (50 Frauen, 35 Männer) untersucht. Das durchschnittliche Alter betrug bei den Männern 54,6 ± 12 Jahre, bei den Frauen 55,6 ± 13,0 Jahre.
Kriterien für die Einbeziehung der Patienten in die Forschung: • 1. Alter: Älter als 45 Jahre für Männer und Frauen. • 2. Vorhandensein von klinischen Merkmalen eines metabolischen Syndroms. • 3. Vorhandensein von verifizierter Pathologie des Magen-Darm-Kanals (Verstopfungen, Reizdarmsyndrom, Cholezystitis, Pankreatitis, Fettleber). • 4. Zustimmung des Patienten.
Die Kriterien für den Ausschluss der Kranken aus der Untersuchung waren das Vorhandensein von familiärer Dyslipidämie, akuter Pathologie des Magen-Darm-Kanals, Merkmalen der Helmintheninvasion und onkologischer und systematischer Pathologie.
Die Kombination der angewandten pathogenetischen Therapie unter Einsatz solcher Mittel wie ACE-Hemmer, Ca2^+-Kanal-Blocker, harntreibende Mittel, β-Blocker und deren Dosierung wurde aufgrund klinischer Indikationen festgelegt. Bei der Untersuchung wurden auch die mit Nitropräparaten sowie mit Statinen behandelten Kranken ausgeschlossen. Alle Kranken wurden einer hypocholesterinämisierenden Diät unterzogen, die eine Einnahme von Kleie einschließt.
Tripeptid Lys-Glu-Trp-NH2 wurde 47 Patienten oral in einer Dosis von 500 µg pro Gabe zweimal täglich im Laufe von 30 Tagen verabreicht. Die Unterbrechung zwischen den Behandlungen betrug 2 Monate.
Die Kranken wurden im Laufe von 12 Monaten beobachtet. Die Untersuchung umfasste 3 Phasen: Ursprungsphase (zum Zeitpunkt der Diagnoseüberprüfung), 6 Monate und ein Jahr später.
Folgende Parameter wurden bei allen Kranken analysiert: Geschlecht, Alter zum Zeitpunkt der Untersuchung, Krankheitsdauer, Dauer der arteriellen Hypertension, Fettsucht, Dyslipidämie. Die Untersuchung der Kranken umfasste eine Einschätzung der Risikofaktoren, wie z. B. Vererbung, Fettsucht, Zuckerkrankheit, koronare Herzkrankheit. Dabei wurde eine Sozialanamnese, d. h. Besonderheiten des Lebensstils, Ernährungsgewohnheiten, analysiert. Es wurden auch anthropometrische Messungen durchgeführt: Wuchs, Körpergewicht, Body-Maß- Index. Alle Kranken wurden einer planmäßigen Laboruntersuchung unterzogen und zwar: klinische Blutanalyse und Untersuchung von biochemischen Blutkennwerten. Es wurden Hämoglobingehalt, Erythrozytenmenge, Leukozyten-gehalt, Lymphozytengehalt ermittelt. Unter den biochemischen Serumkennwerten wurden Gesamteiweißgehalt, Albumine, Triglyzeridspiegel, Cholesterinspiegel, LDL, HDL, LDL/HDL-Verhältnis ermittelt. Die durchgeführten Instrumentenunter-suchungen umfassten Zuckerbelastungstest, Abdomen-Sonographie, Stuhluntersuchungen, Schilddrüsenfunktionsprüfung (Hormonstatus).

The nature of data set [4]: Alloxan diabetes in rats, blood glucose and response to insulin. Format: in vivo, Ratten. The protocol: Bekanntlich ist Alloxan-Diabetes durch Schädigung der ß-Zellen von Pankreas gekennzeichnet und wird von ausgeprägter Hyperglykämie infolge eines Insulinmangels und einer Aktivierung von Glukoneogenese begleitet.
Der Versuch wurde an 18 weißen Outbred-Ratten-Männchen mit einem durchschnittlichen Körpergewicht von 349 ± 19 g durchgeführt. Nach der Ermittlung von Glukosekonzentration im Blut wurden alle Tiere in 2 Gruppen aufgeteilt. Danach erhielten alle Tiere einmalig intravenös je 1 ml Alloxanlösung ("Spofa") in einer Dosis von 35 mg/kg. 15 Tage danach wurde den Tieren aus der Referenzgruppe je 0,3 ml der 0,9 %igen NaCl-Lösung einmal täglich intraperitoneal verabreicht. Die Ratten aus der Hauptgruppe wurden mit Tripeptid Lys-Glu-Trp-NH2 in einer Dosis von 3 µg (in 0,3 ml der 0,9 %igen NaCl-Lösung) pro Ratte innerhalb von 11 Tagen behandelt. Eine separate Gruppe bestand aus 7 gesunden Ratten mit einem ähnlichen Körpergewicht.
Danach wurde allen Tieren Insulin (0,3 ME) intravenös verabreicht und die Glukosekonzentration im Blut gemessen.

Setting [5] is: 20 µg/kg daily into the stomach for 5 days.
[6] abbreviates: 200 µg/kg daily into the stomach for 5 days.
Setting [7] is: 3 µg per rat i.p. for 11 days, 30 min after insulin 0,3 ME i.v.

With `CC(C)(Oc1ccc(CCNC(=O)c2ccc(Cl)cc2)cc1)C(=O)O` [Bezafibrat, 2-(b-parachlorobenzoyl-aminoethyl)phenoxy-2-methylpropinsäure], in data set [1] (50,0 mg/kg (comparator)), the Gesamtcholesterin is 1,34±0,03 mMol/l, the “HDL- Cholesterin” value was 0,98±0,05 mMol/l and the Triglyzeridspiegel is given as 0,55±0,06 mMol/l.
Regarding `NCCCC[C@H](N)C(=O)N[C@@H](CCC(=O)O)C(=O)N[C@@H](Cc1c[nH]c2ccccc12)C(=O)O` [Lys-Glu-Trp, L-Lysyl -L-Glutamyl-L-Tryptophan] (H-Lys-Glu-Trp-OH), in data set [2] (HCÄ diet 24 days), the “Wirkung auf das relative Gewicht von Leber, Milz und Nebennieren” value is recorded as “keine ungünstige Wirkung”. Besides, the Triglyzeridspiegel in data set [2] (HCÄ diet 24 days, blood serum) is listed as 0,96±0,16 mMol/l. In addition, the “Aussehen der Tiere” value in data set [2] (during the 24-day experiment) was “normgerechtes Aussehen”. In data set [2] (calculated, HCÄ diet 24 days), the “CS LDL” value is recorded as 0,71±0,24 mMol/l and the LDL/HDL-Verhältnis is recorded as 2,21±0,58* *. Moreover, the CS in data set [2] (total cholesterol, HCÄ diet 24 days, blood serum) is listed as 1,70±0,27* * mMol/l. Besides, in data set [1] (setting [5]), the “HDL- Cholesterin” value is listed as 0,97±0,04 mMol/l and the Triglyzeridspiegel is recorded as 0,58±0,05 mMol/l. In data set [1] (setting [6]), the Gesamtcholesterin is on record as 2,10±0,17 mMol/l, the “HDL- Cholesterin” value is given as 0,60±0,02 mMol/l and the Triglyzeridspiegel is given as 0,67±0,05 mMol/l.
On to `NCCCC[C@H](N)C(=O)N[C@@H](CCC(=O)O)C(=O)N[C@@H](Cc1c[nH]c2ccccc12)C(N)=O` [Lys-Glu-Trp-NH2] (H-Lys-Glu-Trp-NH2), for which, in data set [1] (setting [5]), the Gesamtcholesterin was 1,69±0,15 mMol/l, the “HDL- Cholesterin” value is on record as 1,05±0,02 mMol/l and the Triglyzeridspiegel is given as 0,76±0,14 mMol/l. Further, in data set [1] (setting [6]), the Gesamtcholesterin is listed as 1,22±0,15 mMol/l, the “HDL- Cholesterin” value was 1,09±0,02 mMol/l and the Triglyzeridspiegel is recorded as 0,88±0,12 mMol/l. In addition, in data set [3] (2 months between courses, 12 months observation, with basic therapy, Fig. 1), the Cholesterin-Konzentration entry is given as “zur Cholesterin-Konzentrationssenkung beitrug”. For the same molecule, in data set [3] (in complex therapy), the “Konzentration der Lipoproteine mit hoher Dichte” value is “Konzentrationssteigerung der Lipoproteine mit hoher Dichte” and the “drucksenkender Effekt” value is “schnelleren und stabileren drucksenkenden Effekt”. For the same molecule, in data set [3] (with basic therapy, Fig. 3), the LDL/HDL-Verhältnis entry is given as “ausgeprägte Verminderung des LDL/HDL-Verhältnisses”. In addition, the “Konzentration der Triglyzeride” value in data set [3] (3rd examination after one year, Fig. 2) is listed as “maximale Konzentrationssenkung der Triglyzeride”. Moreover, the “Nebenwirkungen, Komplikationen, Arzneiabhängigkeit” value in data set [4] (3 µg per rat i.p. for 11 days) was “keine Nebenwirkungen, Komplikationen und keine Arzneiabhängigkeit”. Moreover, in data set [4] (3 µg per rat i.p. for 11 days, starting 15 days after alloxan 35 mg/kg i.v., before insulin), the “Glukosekonzentration im Blut (mg %) Ausgangsspiegel” value is listed as 221,5±11,2 mg %. In data set [4] (setting [7]), the “Glukosekonzentration im Blut (mg %) 30 Minuten nach Insulineinführung” value is recorded as 123,6±8,3 mg % and the “Senkung von Glukosespiegel im Vergleich zum Ausgangsspiegel (%)” value is listed as 44,2%. In data set [4] (day 28 of the study, on average, 3 µg per rat i.p. for 11 days), the “Senkung des Glukosespiegels im Blut” value was 34,8%. Further, in data set [4] (main group, 3 µg per rat i.p. for 11 days), the Letalität entry is given as “Senkung der Letalität”. The “Glukosespiegelsenkung nach der Insulineinführung gegenüber der Vergleichsgruppe” value in data set [4] (versus alloxan diabetes + NaCl group) is “fast zweimal größere Glukosespiegelsenkung”.
